Reference: patent publication US20250101032A1, “EXATECAN DERIVATIVES AND ANTIBODY-DRUG CONJUGATES THEREOF” (priority 2021, published 2025)
Values after ≈ are worked out from the molar mass of the structure shown.

Experiments:
[1] = test system: FaDu; assay: In vitro cytotoxicity assay (CellTiter-Glo), FaDu; type: cell-based, Human; conditions: Homo sapiens, FaDu, 144 h, read-out: Cytotoxicity IC50
Experimental: (§1) Human tumor cell lines, SK-BR-3, NCI-H292, HT-29, MCF-7, NCI-N87, and FaDu were obtained from ATCC. NCI-H292, HT-29, MCF-7, and NCI-N87 cells were cultured in RPMI-1640 media (Gibco, Life Technologies) supplemented with 10% v/v heat inactivated FBS (Corning), FaDu cells were maintained in DMEM media (Gibco, Life Technologies) supplemented with 10% v/v heat inactivated FBS (Corning). SK-BR-3 cells were maintained in McCoys 5A medium (Gibco, Life Technologies) supplemented with 10% […] heat inactivated FBS (Corning) at 37° C. in a humidified incubator containing 5% CO2.
(§2) Lyophilized compounds were dissolved in 100% dry DMSO, aliquots frozen and stored at −80° C. Concentration and purity of compound stock solutions in DMSO were determined by RP-HPLC Agilent 1100 platform with 1200 DAD and SofTA ELSD detectors, and the Agilent 6150 MS system (UV/VIS, ELSD purity and MS compound identity confirmation). Shimadzu 3.0 mm×30 mm XR ODS 2.2 μm column was run at 50° C., 1.5 mL/min. Solvent A: 0.1% Formic acid in water, Solvent B: 0.08% Formic acid in methanol-Gradient: 5%-100% B in 3.0 min, 100% solvent B for 0.3 min. Concentration of compounds in 100% DMSO determined by ELS ranged from 1-6 mM.
(§3) Cells were plated in 96-well white flat-bottomed plates (Corning) at 2.0×10^3 cells per well in 100 μL culture medium. After incubation for 24 hours, test compounds were added at a range of concentrations as ten point serial dilution as duplicates or triplicates. Following further incubation for 6 days 37° C., 5% CO2, cell viability was assessed with the use of a CellTiter-Glo Luminescent Cell Viability Assay (Promega). Luminescence was measured using the GloMax instrument (Promega). […] For a subset of payloads, each treatment was independently repeated two to eight times, and IC50 values were averaged. […] Standard deviation (stdev) is shown as (N/A) for treatment performed once.

[2] = test system: NCI-N87; assay: In vitro cytotoxicity assay (CellTiter-Glo), NCI-N87; type: cell-based, Human; conditions: Homo sapiens, NCI-N87, 144 h, read-out: Cytotoxicity IC50
Experimental: as §1, §2, §3

[3] = test system: SKOV3; assay: In vitro cytotoxicity assay (CellTiter-Glo), SKOV3; type: cell-based; conditions: Homo sapiens, SK-OV-3, 144 h, read-out: Cytotoxicity IC50
Experimental: (§4) Lyophilized compounds were dissolved in 100% dry DMSO, aliquots frozen and stored at −80° C. […] Shimadzu 3.0 mm×30 mm XR ODS 2.2 μm column was run at 50° C., 1.5 mL/min. Solvent A: 0.1% Formic acid in water, Solvent B: 0.08% Formic acid in methanol-Gradient: 5%-100% B in 3.0 min, 100% solvent B for 0.3 min.
as §3

[4] = test system: HT29; assay: In vitro cytotoxicity assay (CellTiter-Glo), HT29; type: cell-based, Human; conditions: Homo sapiens, HT-29, 144 h, read-out: Cytotoxicity IC50
Experimental: as §1, §2, §3

[5] = test system: SKBR3; assay: In vitro cytotoxicity assay (CellTiter-Glo), SKBR3; type: cell-based, Human; conditions: Homo sapiens, SK-BR-3, 144 h, read-out: Cytotoxicity IC50
Experimental: as §1, §2, §3

[6] = test system: NCI-H292; assay: In vitro cytotoxicity assay (CellTiter-Glo), NCI-H292; type: cell-based, Human; conditions: Homo sapiens, NCI-H292, 144 h, read-out: Cytotoxicity IC50
Experimental: as §1, §2, §3

[7] = test system: BXPC3; assay: In vitro cytotoxicity assay (CellTiter-Glo), BXPC3; type: cell-based; conditions: Homo sapiens, BXPC-3, 144 h, read-out: Cytotoxicity IC50
Experimental: as §4, §3

[8] = test system: MCF7; assay: In vitro cytotoxicity assay (CellTiter-Glo), MCF7; type: cell-based, Human; conditions: Homo sapiens, MCF7, 144 h, read-out: Cytotoxicity IC50
Experimental: as §1, §2, §3

[9] = physchem; conditions: 25 °C, pH 7.4, aqueous buffer, kinetic from dmso stock
Experimental: In-vitro kinetic solubilities of the compounds in PBS pH 7.4 buffer at 25° C. were determined by diluting compounds from 100% dimethyl sulfoxide (DMSO) into PBS buffer and measuring absorbance at 490, 590 and 650 nm. Stock concentrations in 100% DMSO were provided at 1-6 mM in 100% DMSO. Kinetic solubilities were determined by diluting test compounds from 100% DMSO into PBS pH 7.4 buffer, as duplicate, 10 point 2-fold serial dilution starting at 100× dilution of stock DMS solution into PBS buffer in a clear, flat bottom polystyrene assay plates. Total assay volume was 200 microliters. Solutions were mixed by plate shaking, incubated for 30 m at 25° C., and absorbance was read at 490, 590 and 650 nm. […] in PBS buffer was used as a blank. For each test compound, average optical density (GD) at each concentration was determined by averaging the blank corrected sum of absorption at 490 nm, 590 nm and 650 nm, over duplicate measurements. Turbidity threshold optical density value was set as a sum of mean plus two standard deviations of the mean of absorbances at 490, 590 and 650 nm for 1% (v/v) DMSO in PBS pH 7.4 buffer. Highest soluble concentration (micromolar) corresponded to the highest concentration at which average optical density was below optical density value set for turbidity threshold (Table 4). Amiodarone and propranolol were used as low and high solubility controls respectively.

| SMILES | IC50 [1] | IC50 [2] | IC50 [3] | IC50 [4] | IC50 [5] | IC50 [6] | IC50 [7] | IC50 [8] | solubility at 30 min [9] |
| --- | --- | --- | --- | --- | --- | --- | --- | --- | --- |
| CC[C@@]1(O)C(=O)OCc2c1cc1n(c2=O)Cc2c-1nc1cc(F)c(C)c3c1c2[C@@H](NC(=O)NCCO)CC3 [Compound 42] | 2.9 nM | 12 nM | 19.5 nM | 10.2 nM | 5.2 nM | 2.4 nM | 5.6 nM | 11.8 nM | 8 µM (≈ 4.18 µg/mL) |
| CC[C@@]1(O)C(=O)OCc2c1cc1n(c2=O)Cc2c-1nc1cc(F)c(C)c3c1c2[C@@H](NC(=O)CCC(=O)NCC(O)CO)CC3 (stereo partly drawn) [Compound 117] | 234 nM | 1450 nM | 1090 nM | 2910 nM | 474 nM | 888 nM | 412 nM | 342 nM | 30 µM (≈ 18.3 µg/mL) |
| CC[C@@]1(O)C(=O)OCc2c1cc1n(c2=O)Cc2c-1nc1cc(F)c(C)c3c1c2[C@@H](Nc1c(NC(CO)(CO)CO)c(=O)c1=O)CC3 [Compound 18] | 42.9 nM | 158 nM | 167 nM | 179 nM | 65.7 nM | 82.1 nM | 44.9 nM | 40.7 nM | 13 µM (≈ 8.25 µg/mL) |
| CC[C@@]1(O)C(=O)OCc2c1cc1n(c2=O)Cc2c-1nc1cc(F)c(C)c3c1c2[C@@H](NC(=O)C1OC(O)C(O)C1O)CC3 (stereo partly drawn) [Compound 100] | 7 nM | 78.6 nM | 90.5 nM | 93.4 nM | 36 nM | 228 nM | 26.9 nM | 28.8 nM | 29 µM (≈ 16.9 µg/mL) |
| CC[C@@]1(O)C(=O)OCc2c1cc1n(c2=O)Cc2c-1nc1cc(F)c(C)c3c1c2[C@@H](NC(=O)CC(=O)NCCO)CC3 [Compound 12] | 16.4 nM | 92 nM | 151 nM | 318 nM | 30.5 nM | 68.6 nM | 45.6 nM | 43.9 nM | 17 µM (≈ 9.6 µg/mL) |
| CC[C@@]1(O)C(=O)OCc2c1cc1n(c2=O)Cc2c-1nc1cc(F)c(C)c3c1c2[C@@H](Nc1c(NCC(O)CO)c(=O)c1=O)CC3 (stereo partly drawn) [Compound 115] | 56.1 nM | 127 nM | 174 nM | 155 nM | 62.8 nM | 128 nM | 55 nM | 47 nM | 23 µM (≈ 13.9 µg/mL) |
| CC[C@@]1(O)C(=O)OCc2c1cc1n(c2=O)Cc2c-1nc1cc(F)c(C)c3c1c2[C@@H](NS(=O)(=O)CCCO)CC3 [Compound 110] | 15.6 nM | 18.2 nM | 59.2 nM | 28.6 nM | 7.6 nM | 18.8 nM | 15.7 nM | 22.4 nM | 18 µM (≈ 10 µg/mL) |
| CC[C@@]1(O)C(=O)OCc2c1cc1n(c2=O)Cc2c-1nc1cc(F)c(C)c3c1c2[C@@H](NC(=O)NC(CO)(CO)CO)CC3 [Compound 48] | 2.8 nM | 43 nM | 77.8 nM | 63.6 nM | 12.6 nM | 27.1 nM | 20.3 nM | 11.8 nM | 28 µM (≈ 16.3 µg/mL) |
